In brackets after ≈: the same amount, converted by molar mass.
Tests used:
Assay type in all cases: cell-based
[1] = tested on: Trichophyton rubrum KD-107; experiment: Antifungal activity evaluation test, MIC, Trichophyton rubrum KD-107; details: KD107, 168 h, Sabouraud Dextrose Broth, 30° C., 7 days, visual, read-out: MIC T. rub. KD-107
Experimental: (§1) The minimum inhibitory concentration (MIC) for Trichophyton mentagrophytes, Trichophyton rubrum, and Malassezia furfur was measured according to the following procedure. • Test compound solution: A test compound was dissolved in dimethyl sulfoxide (DMSO) at a concentration of 5 mg/mL as a stock solution. […] Then, as a test medium, a fungal solution of Trichophyton species was 100-fold diluted with Sabouraud Dextrose Broth (Difco), and a fungal solution of Malassezia furfur IFO-0656 was 100-fold diluted with MU medium to give each inoculum (2×10^4 cells/mL). • Measurement of MIC of Trichophyton fungi: Sabouraud Dextrose Broth (Difco) was dispensed by 100 μL to a given well of a 96 well flat microplate. Then, a test compound solution (2 μL) was added, and the mixture was thoroughly mixed with a plate mixer. A fungal solution (100 μL) was inoculated and cultured at 30° C. for 7 days. The presence or absence of the cell growth was visually observed, and the minimum medicament concentration at which the cell growth was prevented was taken as MIC (μg/mL). • Measurement of MIC of Malassezia furfur: Since the urease activity of this fungus and the fungus growth rate are co-related, MIC was evaluated by the following method using urease activity as an index. MU medium was dispensed by 100 μL to a given well of a 96 well flat microplate. Then, a test compound solution (2 μL) was added, and the mixture was thoroughly mixed with a plate mixer. A fungal solution (100 μL) was inoculated and cultured at 30° C. The culture was stopped on day 4 or 5 of culture when the color tone of the MU medium changes from yellow to red in visual observation of the fungus growth in a well free of addition of a test substance. Then the plate was stirred until the fungus became uniform, and the urease activity was measured based on the measurement of absorbance at 550 nm using a plate reader.

[2] = tested on: Malassezia furfur IFO-0656; experiment: Antifungal activity evaluation test, MIC by urease activity, Malassezia furfur IFO-0656; details: IFO0656, 96 h, MU medium, 30° C., day 4 or 5, urease activity of 20% or below, read-out: MIC M. fur. IFO-0656
Experimental: as §1

[3] = tested on: Trichophyton mentagrophytes KD-04; experiment: Antifungal activity evaluation test, MIC, Trichophyton mentagrophytes KD-04; details: KD04, 168 h, Sabouraud Dextrose Broth, 30° C., 7 days, visual, read-out: MIC T. men. KD-04
Experimental: as §1

[4] = tested on: Trichophyton rubrum KD-101; experiment: Antifungal activity evaluation test, MIC, Trichophyton rubrum KD-101; details: KD101, 168 h, Sabouraud Dextrose Broth, 30° C., 7 days, visual, read-out: MIC T. rub. KD-101
Experimental: as §1

[5] = tested on: Trichophyton mentagrophytes SM-110; experiment: Antifungal activity evaluation test, MIC, Trichophyton mentagrophytes SM-110; details: SM110, 168 h, Sabouraud Dextrose Broth, 30° C., 7 days, visual, read-out: MIC T. men. SM-110
Experimental: as §1

SMILES	MIC [1] [µg/mL]	MIC [2] [µg/mL]	MIC [3] [µg/mL]	MIC [4] [µg/mL]	MIC [5] [µg/mL]
CCc1ccccc1C(=NN1CCCCCC1)n1ccnc1 [Compound No. 184, [1-(2-ethylphenyl)-1-imidazol-1-ylmethylidene]homopiperidin-1-ylamine]	0.05 (≈ 0.169 µM)	1.56 (≈ 5.26 µM)	0.05 (≈ 0.169 µM)	0.05 (≈ 0.169 µM)	0.1 (≈ 0.337 µM)
CC(C)Oc1ccccc1C(=NN(C)C)n1ccnc1 [Compound No. 19, N′-[1-imidazol-1-yl-1-(2-isopropoxyphenyl)methylidene]-N,N-dimethylhydrazine]	0.2 (≈ 0.734 µM)	25 (≈ 91.8 µM)	0.2 (≈ 0.734 µM)	0.78 (≈ 2.86 µM)	0.2 (≈ 0.734 µM)
CCN(CC)N=C(c1ccccc1OCc1ccc(Cl)cc1)n1ccnc1 [Compound No. 118, N′-[1-[2-(4-chlorobenzyloxy)phenyl]-1-imidazol-1-ylmethylidene]-N,N-diethylhydrazine]	0.05 (≈ 0.131 µM)	0.39 (≈ 1.02 µM)	0.1 (≈ 0.261 µM)	0.1 (≈ 0.261 µM)	0.2 (≈ 0.522 µM)
CSc1ccccc1C(=NN(C)C)n1ccnc1 [Compound No. 79, N′-[1-imidazol-1-yl-1-(2-methylthiophenyl)methylidene]-N,N-dimethylhydrazine]	0.39 (≈ 1.5 µM)	> 25	0.39 (≈ 1.5 µM)	0.39 (≈ 1.5 µM)	0.39 (≈ 1.5 µM)
CN(C)N=C(c1ccccc1SCCOc1ccccc1)n1ccnc1 [Compound No. 85, N′-[1-imidazol-1-yl-1-[2-(2-phenoxyethylthio)phenyl]methylidene]-N,N-dimethylhydrazine]	0.05 (≈ 0.136 µM)	0.05 (≈ 0.136 µM)	0.1 (≈ 0.273 µM)	0.1 (≈ 0.273 µM)	0.2 (≈ 0.546 µM)
COc1cccc(COc2ccccc2C(=NN(C)C)n2ccnc2)c1 [Compound No. 53, N′-[1-imidazol-1-yl-1-[2-(3-methoxybenzyloxy)phenyl]methylidene]-N,N-dimethylhydrazine]	0.1 (≈ 0.285 µM)	0.78 (≈ 2.23 µM)	0.2 (≈ 0.571 µM)	0.2 (≈ 0.571 µM)	0.39 (≈ 1.11 µM)
C=CCOc1ccccc1C(=NN1CCCCCC1)n1ccnc1 [Compound No. 200, homopiperidin-1-yl-[1-imidazol-1-yl-1-[2-(2-propenyloxy)phenyl]methylidene]amine]	0.1 (≈ 0.308 µM)	0.2 (≈ 0.616 µM)	0.1 (≈ 0.308 µM)	0.1 (≈ 0.308 µM)	0.1 (≈ 0.308 µM)
CCCCCOc1ccccc1C(=NN1CCCCC1)n1ccnc1 [Compound No. 173, [1-imidazol-1-yl-1-(2-pentyloxyphenyl)methylidene]piperidin-1-ylamine]	0.1 (≈ 0.294 µM)	0.39 (≈ 1.15 µM)	0.2 (≈ 0.587 µM)	0.1 (≈ 0.294 µM)	0.2 (≈ 0.587 µM)
CN(N=C(c1ccccc1Cl)n1ccnc1)c1ccc(Cl)cc1 [Compound No. 141, N-(4-chlorophenyl)-N′-[1-(2-chlorophenyl)-1-imidazol-1-ylmethylidene]-N-methylhydrazine]	0.2 (≈ 0.579 µM)	> 10	0.2 (≈ 0.579 µM)	0.39 (≈ 1.13 µM)	0.39 (≈ 1.13 µM)
c1ccc(Oc2ccccc2C(=NN2CCCCCC2)n2ccnc2)cc1 [Compound No. 212, homopiperidin-1-yl-[1-imidazol-1-yl-1-(2-phenoxyphenyl)methylidene]amine]	0.39 (≈ 1.08 µM)	25 (≈ 69.4 µM)	0.39 (≈ 1.08 µM)	0.78 (≈ 2.16 µM)	0.78 (≈ 2.16 µM)
CN(C)N=C(c1ccccc1OCc1ccccc1)n1ccnc1 [Compound No. 34, N′-[1-(2-benzyloxyphenyl)-1-imidazol-1-ylmethylidene]-N,N-dimethylhydrazine]	0.1 (≈ 0.312 µM)	0.62 (≈ 1.94 µM)	0.2 (≈ 0.624 µM)	0.2 (≈ 0.624 µM)	0.2 (≈ 0.624 µM)
CN(C)N=C(c1ccccc1OCCCc1ccccc1)n1ccnc1 [Compound No. 61, N′-[1-imidazol-1-yl-1-[2-(3-phenylpropoxy)phenyl]methylidene]-N,N-dimethylhydrazine]	0.025 (≈ 0.0717 µM)	0.2 (≈ 0.574 µM)	0.05 (≈ 0.143 µM)	0.05 (≈ 0.143 µM)	0.1 (≈ 0.287 µM)

— US8022072B2, “Azolylmethylidenehydrazine derivative and use thereof” (Kaken Pharmaceutical Co., Ltd., priority 2007, dated 2011)
